The structures appear in SMILES notation.

Drawing on patent US20260356830A1, “COMPOUNDS FOR MODULATING RET PROTEIN” (Bristol-Myers Squibb Company, priority 2022, published 2026), this text covers Dmax and DC50 for 16 compounds.

In this experiment the target is T1, CCDC6-RET (Homo sapiens, UniProt P07949+Q16204+Q96SW2).
T1 construct: CCDC6 (natural N-terminal fusion partner, UniProt Q16204); endogenous in cells; host or cells: TPC-1 (parental, papillary thyroid carcinoma)
In words: Cellular RET degradation, AlphaLISA, TPC-1 cell line. The following applies: for Dmax: TPC1, human, 24 h, read-out: Cell Density TPC-1/CCDC6-RET Ymax %; for DC50: read-out: Cell Density TPC-1/CCDC6-RET DC50, half-maximal degradation concentration, TPC-1 (CCDC6-RET), 24 hrs. In kind it is cell-based. The method, boiled down:
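TPC-1 papillary thyroid carcinoma cells (endogenous CCDC6-RET) in DMEM with 2% FBS, compound-treated 24 h at 37 °C. RET in lysates quantified by AlphaLISA luminescence, normalized to media-only and DMSO wells; DC50 and maximal degradation from 4-parameter logistic fit.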
(In general: Alpha assays give light when donor and acceptor beads are brought close together.)

T1 sequence (Q16204+P07949 fused): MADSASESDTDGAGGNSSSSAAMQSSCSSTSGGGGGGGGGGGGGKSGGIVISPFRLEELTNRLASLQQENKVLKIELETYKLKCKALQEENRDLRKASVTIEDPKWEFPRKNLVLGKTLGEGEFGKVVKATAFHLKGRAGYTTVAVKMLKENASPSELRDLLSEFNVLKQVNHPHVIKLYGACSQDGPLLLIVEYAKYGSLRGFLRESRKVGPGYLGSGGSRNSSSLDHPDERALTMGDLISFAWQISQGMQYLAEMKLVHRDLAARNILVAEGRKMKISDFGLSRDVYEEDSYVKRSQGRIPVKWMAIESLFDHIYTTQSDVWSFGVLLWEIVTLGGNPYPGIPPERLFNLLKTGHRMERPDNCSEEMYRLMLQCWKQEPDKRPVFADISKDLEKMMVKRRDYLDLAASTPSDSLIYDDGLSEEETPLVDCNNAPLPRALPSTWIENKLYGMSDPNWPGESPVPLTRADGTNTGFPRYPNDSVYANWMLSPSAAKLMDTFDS
T1 sequence (Q96SW2 whole entry, the tested form may be a part): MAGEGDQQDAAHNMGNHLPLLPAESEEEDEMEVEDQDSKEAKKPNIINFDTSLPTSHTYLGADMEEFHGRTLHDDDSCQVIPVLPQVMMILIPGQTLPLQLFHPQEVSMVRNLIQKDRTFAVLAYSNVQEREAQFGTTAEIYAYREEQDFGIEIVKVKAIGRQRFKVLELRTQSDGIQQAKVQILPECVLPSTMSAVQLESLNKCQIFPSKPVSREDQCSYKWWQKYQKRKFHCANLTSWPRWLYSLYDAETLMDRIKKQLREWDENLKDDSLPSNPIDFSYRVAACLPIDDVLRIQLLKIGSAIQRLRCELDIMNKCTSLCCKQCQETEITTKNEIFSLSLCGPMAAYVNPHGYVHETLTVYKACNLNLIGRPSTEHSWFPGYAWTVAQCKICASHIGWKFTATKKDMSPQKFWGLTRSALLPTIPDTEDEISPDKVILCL
T1 sequence (Q16531 whole entry partner, the tested form may be a part): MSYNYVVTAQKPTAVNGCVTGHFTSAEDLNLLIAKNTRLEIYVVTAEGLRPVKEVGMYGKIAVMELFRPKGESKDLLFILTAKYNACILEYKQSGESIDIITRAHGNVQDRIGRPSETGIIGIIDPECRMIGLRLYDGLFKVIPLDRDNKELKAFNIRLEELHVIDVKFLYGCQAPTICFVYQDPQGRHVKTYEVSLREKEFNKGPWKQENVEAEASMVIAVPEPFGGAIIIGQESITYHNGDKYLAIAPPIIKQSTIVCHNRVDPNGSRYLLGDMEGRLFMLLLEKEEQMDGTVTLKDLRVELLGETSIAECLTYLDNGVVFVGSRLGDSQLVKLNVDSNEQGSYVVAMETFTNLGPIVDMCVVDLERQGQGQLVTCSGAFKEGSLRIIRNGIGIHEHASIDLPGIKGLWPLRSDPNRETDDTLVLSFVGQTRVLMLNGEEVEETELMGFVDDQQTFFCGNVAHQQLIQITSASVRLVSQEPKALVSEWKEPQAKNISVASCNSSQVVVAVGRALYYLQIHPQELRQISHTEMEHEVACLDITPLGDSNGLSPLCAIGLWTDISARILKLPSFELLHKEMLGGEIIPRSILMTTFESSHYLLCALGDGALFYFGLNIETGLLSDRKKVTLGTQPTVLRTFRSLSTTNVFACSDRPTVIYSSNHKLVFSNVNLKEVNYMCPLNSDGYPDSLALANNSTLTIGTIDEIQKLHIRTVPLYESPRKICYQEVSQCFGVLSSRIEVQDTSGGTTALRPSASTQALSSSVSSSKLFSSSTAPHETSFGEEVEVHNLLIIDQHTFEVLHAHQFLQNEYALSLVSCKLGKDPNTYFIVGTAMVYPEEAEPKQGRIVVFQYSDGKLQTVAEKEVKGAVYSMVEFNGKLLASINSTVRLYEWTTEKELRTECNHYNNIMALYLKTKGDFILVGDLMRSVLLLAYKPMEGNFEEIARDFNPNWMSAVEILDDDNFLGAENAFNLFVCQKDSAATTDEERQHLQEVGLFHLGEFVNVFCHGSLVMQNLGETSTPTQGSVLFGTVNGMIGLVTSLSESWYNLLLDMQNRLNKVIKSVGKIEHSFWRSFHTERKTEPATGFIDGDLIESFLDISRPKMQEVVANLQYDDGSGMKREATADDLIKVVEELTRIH

Consider `CCOc1cc(-c2ccc(N3CCC(CN4CCN(C(=O)CCCCCCN5CCN(c6ccc7c(c6)CN(C6CCC(=O)NC6=O)C7=O)CC5)CC4)(NC(=O)c4ncccc4F)CC3)nc2)c2c(C#N)cnn2c1` (centres unmarked) [Example 2, N-(1-(5-(3-cyano-6-ethoxypyrazolo[1,5-a]pyridin-4-yl)pyridin-2-yl)-4-((4-(7-(4-(2-(2,6-dioxopiperidin-3-yl)-1-oxoisoindolin-5-yl)piperazin-1-yl)heptanoyl)piperazin-1-yl)methyl)piperidin-4-yl)-3-fluoropicolinamide], for which the Dmax is 60 to 90% and the DC50 fell in the range of 2 to 10 nM.

Regarding `CCOc1cc(-c2ccc(N3CCC(Cc4ccccc4)(NC(=O)N4CCN(C(=O)CCN5CCC(c6ccc7c(c6)C(=O)N(C6CCC(=O)NC6=O)C7)CC5)CC4)CC3)nc2)c2c(C#N)cnn2c1` (centres unmarked) [Example 51, N-[4-benzyl-1-[5-(3-cyano-6-ethoxy-pyrazolo[1,5-a]pyridin-4-yl)-2-pyridyl]-4-piperidyl]-4-[3-[4-[2-(2,6-dioxo-3-piperidyl)-3-oxo-isoindolin-5-yl]-1-piperidyl]propanoyl]piperazine-1-carboxamide], the Dmax fell in the range of 60 to 90% and the DC50 lay in the range of 10 to 100 nM.

For the compound `CCOc1cc(-c2ccc(N3CCC(COCc4cn(CCN5CCN(c6ccc7c(c6)CN(C6CCC(=O)NC6=O)C7=O)CC5)nn4)(NC(=O)c4cc(F)ccc4F)CC3)nc2)c2c(C#N)cnn2c1` (centres unmarked) [Example 49, N-[1-[5-(3-cyano-6-ethoxy-pyrazolo[1,5-a]pyridin-4-yl)-2-pyridyl]-4-[[1-[2-[4-[2-(2,6-dioxo-3-piperidyl)-1-oxo-isoindolin-5-yl]piperazin-1-yl]ethyl]triazol-4-yl]methoxymethyl]-4-piperidyl]-2,5-difluoro-benzamide], the Dmax was greater than 90% and the DC50 lay in the range of 2 to 10 nM.

As to `CCOc1cc(-c2ccc(N3CCC(NC(=O)c4cc(F)ccc4F)(C(=O)NCCCCCCCCCCNc4cccc5c(N6CCC(=O)NC6=O)nn(C)c45)CC3)nc2)c2c(C#N)cnn2c1` [Example 150, 1-(5-{3-cyano-6-ethoxypyrazolo[1,5-a]pyridin-4-yl}pyridin-2-yl)-4-(2,5-difluorobenzamido)-N-(10-{[3-(2,4-dioxo-1,3-diazinan-1-yl)-1-methyl-1H-indazol-7-yl]amino}decyl)piperidine-4-carboxamide], the Dmax was greater than 90% and the DC50 lay within 10 to 100 nM.

`CCOc1cc(-c2ccc(N3CCC(CN4CCN(C(=O)CCCCCCCCCCCCCCNC(=O)COc5cccc6c5CN(C5CCC(=O)NC5=O)C6=O)CC4)(NC(=O)c4cc(F)ccc4F)CC3)nc2)c2c(C#N)cnn2c1` (centres unmarked) [Example 30, N-[1-(5-{3-cyano-6-ethoxypyrazolo[1,5-a]pyridin-4-yl}pyridin-2-yl)-4-({4-[15-(2-{[2-(2,6-dioxopiperidin-3-yl)-1-oxo-2,3-dihydro-1H-isoindol-4-yl]oxy}acetamido)pentadecanoyl]piperazin-1-yl}methyl)piperidin-4-yl]-2,5-difluorobenzamide]: the Dmax lay within 60 to 90% and the DC50 lay within 100 to 2000 nM.

`CCOc1cc(-c2ccc(N3CCC(CN4CCN(CC5CCN(C(=O)Cc6cccc7c6CN(C6CCC(=O)NC6=O)C7=O)CC5)CC4)(NC(=O)c4cc(F)ccc4F)CC3)nc2)c2c(C#N)cnn2c1` (centres unmarked) [Example 111, N-[1-(5-{3-cyano-6-ethoxypyrazolo[1,5-a]pyridin-4-yl}pyridin-2-yl)-4-({4-[(1-{2-[2-(2,6-dioxopiperidin-3-yl)-1-oxo-2,3-dihydro-1H-isoindol-4-yl]acetyl}piperidin-4-yl)methyl]piperazin-1-yl}methyl)piperidin-4-yl]-2,5-difluorobenzamide]: the Dmax is 60 to 90% and the DC50 was in the range of 2 to 10 nM.

For the compound `CCOc1cc(-c2ccc(N3CCC(NC(=O)c4cc(F)ccc4F)(C(=O)NCCCCCCCCNc4ccc5c(N6CCC(=O)NC6=O)nn(C)c5c4)CC3)nc2)c2c(C#N)cnn2c1` [Example 152, 1-(5-{3-cyano-6-ethoxypyrazolo[1,5-a]pyridin-4-yl}pyridin-2-yl)-4-(2,5-difluorobenzamido)-N-(8-{[3-(2,4-dioxo-1,3-diazinan-1-yl)-1-methyl-1H-indazol-6-yl]amino}octyl)piperidine-4-carboxamide], the Dmax was in the range of 60 to 90% and the DC50 fell in the range of 2 to 10 nM.

As for `CCOc1cc(-c2ccc(N3CCC(COCCN4CCN(C(=O)CCN5CCC(c6ccc7c(c6)C(=O)N(C6CCC(=O)NC6=O)C7)CC5)CC4)(NC(=O)c4cc(F)ccc4F)CC3)nc2)c2c(C#N)cnn2c1` (centres unmarked) [Example 32, N-[1-[5-(3-cyano-6-ethoxy-pyrazolo[1,5-a]pyridin-4-yl)-2-pyridyl]-4-[2-[4-[3-[4-[2-(2,6-dioxo-3-piperidyl)-3-oxo-isoindolin-5-yl]-1-piperidyl]propanoyl]piperazin-1-yl]ethoxymethyl]-4-piperidyl]-2,5-difluoro-benzamide], the Dmax fell in the range of 60 to 90% and the DC50 lay within 10 to 100 nM.

`CCOc1cc(-c2ccc(N3CCC(CN(C)C(=O)CCCCCCN4CCN(c5ccc6c(c5)CN(C5CCC(=O)NC5=O)C6=O)CC4)(NC(=O)c4cc(F)ccc4F)CC3)nc2)c2c(C#N)cnn2c1` (centres unmarked) [Example 137, N-[1-(5-{3-cyano-6-ethoxypyrazolo[1,5-a]pyridin-4-yl}pyridin-2-yl)-4-[(7-{4-[2-(2,6-dioxopiperidin-3-yl)-1-oxo-2,3-dihydro-1H-isoindol-5-yl]piperazin-1-yl}-N-methylheptanamido)methyl]piperidin-4-yl]-2,5-difluorobenzamide]: the Dmax was greater than 90% and the DC50 fell in the range of 2 to 10 nM.

Turning to `CCOc1cc(-c2ccc(N3CCC(CN4CCN(C(=O)CCCCCCCCCCCCNC(=O)COc5cccc6c5CN(C5CCC(=O)NC5=O)C6=O)CC4)(NC(=O)c4cc(F)ccc4F)CC3)nc2)c2c(C#N)cnn2c1` (centres unmarked) [Example 29, N-[1-(5-{3-cyano-6-ethoxypyrazolo[1,5-a]pyridin-4-yl}pyridin-2-yl)-4-({4-[13-(2-{[2-(2,6-dioxopiperidin-3-yl)-1-oxo-2,3-dihydro-1H-isoindol-4-yl]oxy}acetamido)tridecanoyl]piperazin-1-yl}methyl)piperidin-4-yl]-2,5-difluorobenzamide], the Dmax was greater than 90% and the DC50 is 10 to 100 nM.

For `CCOc1cc(-c2ccc(N3CCC(CN4CCN(C(=O)CCN5CCC6(CC5)CCN(c5ccc7c(c5)CN(C5CCC(=O)NC5=O)C7=O)CC6)CC4)(NC(=O)c4cc(F)ccc4F)CC3)nc2)c2c(C#N)cnn2c1` (centres unmarked) [Example 91, N-[1-(5-{3-cyano-6-ethoxypyrazolo[1,5-a]pyridin-4-yl}pyridin-2-yl)-4-{[4-(3-{9-[2-(2,6-dioxopiperidin-3-yl)-1-oxo-2,3-dihydro-1H-isoindol-5-yl]-3,9-diazaspiro[5.5]undecan-3-yl}propanoyl)piperazin-1-yl]methyl}piperidin-4-yl]-2,5-difluorobenzamide], the Dmax lay within 60 to 90% and the DC50 was less than 2 nM.

Regarding `CCOc1cc(-c2ccc(N3CCC(CN4CCN(CC5CCN(C(=O)Cc6ccc7c(c6)C(=O)N(C6CCC(=O)NC6=O)C7)CC5)CC4)(NC(=O)c4cc(F)ccc4F)CC3)nc2)c2c(C#N)cnn2c1` (centres unmarked) [Example 113, N-[1-(5-{3-cyano-6-ethoxypyrazolo[1,5-a]pyridin-4-yl}pyridin-2-yl)-4-({4-[(1-{2-[2-(2,6-dioxopiperidin-3-yl)-3-oxo-2,3-dihydro-1H-isoindol-5-yl]acetyl}piperidin-4-yl)methyl]piperazin-1-yl}methyl)piperidin-4-yl]-2,5-difluorobenzamide], the Dmax was greater than 90% and the DC50 is less than 2 nM.

As for `CCOc1cc(-c2ccc(N3CCC(Cc4ccccc4)(NC(=O)N4CCC(N5CCC(c6ccc7c(c6)C(=O)N(C6CCC(=O)NC6=O)C7)CC5)CC4)CC3)nc2)c2c(C#N)cnn2c1` (centres unmarked) [Example 56, N-[4-benzyl-1-[5-(3-cyano-6-ethoxy-pyrazolo[1,5-a]pyridin-4-yl)-2-pyridyl]-4-piperidyl]-4-[4-[2-(2,6-dioxo-3-piperidyl)-3-oxo-isoindolin-5-yl]-1-piperidyl]piperidine-1-carboxamide], the Dmax was in the range of 60 to 90% and the DC50 fell in the range of 2 to 10 nM.

Consider `CCOc1cc(-c2ccc(N3CCC(NC(=O)c4cc(F)ccc4F)(C(=O)NCCCCCCNc4ccc(N5CCC(=O)NC5=O)cc4)CC3)nc2)c2c(C#N)cnn2c1` [Example 148, 1-(5-{3-cyano-6-ethoxypyrazolo[1,5-a]pyridin-4-yl}pyridin-2-yl)-4-(2,5-difluorobenzamido)-N-(6-{[4-(2,4-dioxo-1,3-diazinan-1-yl)phenyl]amino}hexyl)piperidine-4-carboxamide], for which the Dmax is 60 to 90% and the DC50 was 2 to 10 nM.

With `CCOc1cc(-c2ccc(N3CCC(CN4CCC5(CCC(CC(=O)N6CCN(c7ccc8c(c7)C(=O)N(C7CCC(=O)NC7=O)C8)CC6)CC5)CC4)(NC(=O)c4cc(F)ccc4F)CC3)nc2)c2c(C#N)cnn2c1` (centres unmarked) [Example 123, N-[1-(5-{3-cyano-6-ethoxypyrazolo[1,5-a]pyridin-4-yl}pyridin-2-yl)-4-{[9-(2-{4-[2-(2,6-dioxopiperidin-3-yl)-3-oxo-2,3-dihydro-1H-isoindol-5-yl]piperazin-1-yl}-2-oxoethyl)-3-azaspiro[5.5]undecan-3-yl]methyl}piperidin-4-yl]-2,5-difluorobenzamide], the Dmax was greater than 90% and the DC50 fell in the range of 2 to 10 nM.

Turning to `CCOc1cc(-c2ccc(N3CCC(CN4CCN(C(=O)C5CC6(CC(C(=O)Nc7ccc8c(N9CCC(=O)NC9=O)nn(C)c8c7)C6)C5)CC4)(NC(=O)c4cc(F)ccc4F)CC3)nc2)c2c(C#N)cnn2c1` (centres unmarked) [Example 84, 6-(4-{[1-(5-{3-cyano-6-ethoxypyrazolo[1,5-a]pyridin-4-yl}pyridin-2-yl)-4-(2,5-difluorobenzamido)piperidin-4-yl]methyl}piperazine-1-carbonyl)-N-[3-(2,4-dioxo-1,3-diazinan-1-yl)-1-methyl-1H-indazol-6-yl]spiro[3.3]heptane-2-carboxamide], the Dmax is greater than 90% and the DC50 was less than 2 nM.
